Patent publication US4971992A, “Carbonate derivatives of eseroline” (priority 1989, dated 1990)
Where two headings read alike, the source gives them in different places.

Test system: 2-phenyl-1,4-benzoquinone-induced writhing
Experiment: 2-phenyl-1,4-benzoquinone-induced writhing test in mice (analgesia)
Type: in vivo
Conditions: Mus musculus, read-out: Inhibition of Writhing ED50
Description: Compounds of the present invention are useful as analgesic agents due to their ability to alleviate pain in mammals. […] Exptl. Biol. Med. 95, 729 (1957)]. The analgesic activity of some of the compounds expressed in terms of the ED50 values for inhibition of writhing are given in TABLE I.

| SMILES | ED50 (sc, subcutaneous) | ED50 (oral) |
| --- | --- | --- |
| CN1CC[C@@]2(C)c3cc(OC(=O)Oc4ccc(Cl)cc4)ccc3N(C)[C@@H]12.O=C(O)/C=C/C(=O)O (relative stereo) [4-Chlorophenyl (3aS-cis)-1,2,3,3a,8,8a-hexahydro-1,3a,8-trimethylpyrrolo [2,3-b]indol-5-yl carbonate fumarate] | 0.74 mg/kg |  |
| CN1CC[C@@]2(C)c3cc(OC(=O)OC(C)(C)C)cc(Br)c3N(C)[C@@H]12 [(3aS-cis)-7-Bromo-1,2,3,3a,8,8a-hexahydro-1,3a,8-trimethylpyrrolo[2,3-b]indol-5-yl t-butyl carbonate sesquifumarate] | 0.16 mg/kg | 0.4 mg/kg |
| CN1CC[C@@]2(C)c3cc(O)ccc3N(C)[C@@H]12 [eseroline salicylate, reference compound] | 0.52 mg/kg |  |
